The nature of series [1]: Pharmacokinetic evaluation in beagle dogs. It counts as in vivo. The settings on record: male, dog, plasma; for AUC(0-t): read-out: Area under curve AUC0-t; for half-life: read-out: Half-life T1/2 (converted). The method, then:
Beagle, male, 13 to 14 months old, purchased from Beijing Mas Biotechnology Co., Ltd.
Intravenous injection group: an appropriate amount of the compound to be tested was weighed, and an appropriate amount of DMA:30% Solutol HS-15:Saline=5:5:90 (v/v/v) was added, vortexed, and a solution with a final concentration of 0.5 mg/mL was prepared.
(§1) Intragastric administration group: an appropriate amount of the compound to be tested was weighed, and an appropriate amount of DMA:30% Solutol HS-15:Saline=5:5:90 (v/v/v) was added, vortexed, and a solution with a final concentration of 1 mg/mL was prepared.
The beagle dogs were divided into intravenous injection group (3 dogs/group) and intragastric administration group (3 dogs/group) according to the compound to be tested.
Intravenous injection group: dogs were fasted overnight and then administered by intravenous injection (administration dosage was 0.5 mg/kg, and administration volume was 1 mL/kg), and ate 4 hours after administration. […]
Intravenous injection group: about 0.5 mL of blood was collected through jugular vein into EDTA-K2 anticoagulant tubes at 0.083 hour, 0.25 hour, 0.5 hour, 1 hour, 2 hours, 4 hours, 8 hours and 24 hours after administration. […] The collected plasma sample was stored at −40˜−20° C. before analysis.
Intragastric administration group: about 0.5 mL of blood was collected through jugular vein into EDTA-K2 anticoagulant tubes at 0.25 hour, 0.5 hour, 1 hour, 2 hours, 4 hours, 8 hours and 24 hours after administration. […] The collected plasma sample was stored at −40˜−20° C. before analysis.
LC-MS/MS was used to determine the content of the compound to be tested in dog plasma after intravenous injection and intragastric administration of the compound.

A short description of series [2]: Pharmacokinetic evaluation in SD rats. In kind it is in vivo. The settings on record: male, rat, plasma; for AUC(0-t): read-out: Area under curve AUC0-t; for half-life: read-out: Half-life T1/2 (converted). The protocol:
SD rats were used as the test animals, and LC/MS/MS was used to determine the drug concentrations at different moments in plasma after compound 11 of the present invention was administered to the rats through intravenous injection or intragastric administration. The pharmacokinetic characteristics of compound 11 of the present invention in SD rats were studied.
SD rats, male, 195-235 g, 6-8 weeks old, were purchased from Vital River Laboratory Animal Technology Co., Ltd.
Intravenous injection group: an appropriate amount of the compound to be tested was weighed, and an appropriate amount of DMA:30% Solutol HS-15:Saline=5:5:90 (v/v/v) was added respectively, vortexed, and a solution with a final concentration of 0.2 mg/mL was prepared.
as §1
The SD rats were divided into intravenous injection group (3 rats/group) and intragastric administration group (3 rats/group) according to the compound to be tested.
Intravenous injection group: rats were fasted overnight and then administered by intravenous injection (administration dosage was 1 mg/kg, and administration volume was 5 mL/kg), and ate 4 hours after administration.
Intragastric administration group: rats were fasted overnight followed by intragastric administration (administration dosage was 10 mg/kg, and administration volume was 10 mL/kg), and ate 4 hours after administration.
Intravenous injection group: about 150 μL of blood was collected through jugular vein into EDTA-K2 anticoagulant tubes 0.083 hour, 0.25 hour, 0.5 hour, 1 hour, 2 hours, 4 hours, 8 hours and 24 hours after administration. The collected blood sample was placed on ice, and plasma was separated by centrifugation (centrifugation condition: 1500 g, 10 minutes). The collected plasma sample was stored at −40˜−20° C. before analysis.
Intragastric administration group: about 100 μL of blood was collected through jugular vein into EDTA-K2 anticoagulant tubes 0.25 hour, 0.5 hour, 1 hour, 2 hours, 4 hours, 8 hours and 24 hours after administration. The collected blood sample was placed on ice, and plasma was separated by centrifugation (centrifugation condition: 1500 g, 10 minutes). The collected plasma sample was stored at −40˜−20° C. before analysis.
LC-MS/MS was used to determine the content of the compound to be tested in rat plasma after intravenous injection and intragastric administration of the compound.

In the case of `COc1cc2nc(C)nc(N[C@H](C)c3cccc(C#N)c3C)c2cc1N1CCC(C)(O)CC1` [Compound 11, (R)-3-(1-((6-(4-hydroxy-4-methylpiperidin-1-yl)-7-methoxy-2-methylquinazolin-4-yl)amino)ethyl)-2-methylbenzonitrile], the bioavailability in series [1] (Oral 2 mg/kg vs injection 0.5 mg/kg, read-out: Bioavailability F) was 127%; in series [2] (Oral 10 mg/kg vs injection 1 mg/kg, read-out: Bioavailability F), 79.4%. Further, the AUC(0-t) in series [1] (Oral 2 mg/kg) was 3510 ± 1750 ng·h/mL; in series [1] (iv, injection 0.5 mg/kg), 693 ± 183 ng·h/mL; in series [2] (Oral 10 mg/kg) it was 4860 ± 1670 ng·h/mL; in series [2] (iv, injection 1 mg/kg) it was 612 ± 126 ng·h/mL. The half-life in series [1] (Oral 2 mg/kg) was 4.21 ± 0.943 h; in series [1] (iv, injection 0.5 mg/kg), 2.81 ± 0.45 h; in series [2] (Oral 10 mg/kg) it was 2.41 ± 2.11 h; in series [2] (iv, injection 1 mg/kg), 0.73 ± 0.32 h. Also, the Cmax in series [1] (Oral 2 mg/kg, read-out: Plasma concentration Cmax) was found to be 456 ± 149 ng/mL; in series [2] (Oral 10 mg/kg, read-out: Plasma concentration Cmax) it was 1150 ± 349 ng/mL.

These data come from patent US20240382475A1, “Quinazoline Derivative, Or Preparation Method Therefor And Use Thereof” (Zhejiang Hisun Pharmaceutical Co., Ltd., priority 2021, published 2024).
